Assay results from patent US20250026753A1, “FUSED TRIAZINONE DERIVATIVES AND METHODS OF USING THE SAME” (Rgenta Therapeutics, Inc., priority 2021, published 2025).
Structures can show the parent of a compound that is named as a salt.

Legend:
[1] = system: K562; assay: Cell proliferation assay (CellTiterGlo, 72 hour incubation), K562; format: cell-based; details: Homo sapiens, K562 cells, inhibition of cell proliferation, CellTiterGlo luminescence
Experimental: (§1) Various cancer cell lines including K562 and COLO201, were treated with the compounds of the present disclosure to assess their effect on inhibiting cell proliferation.
(§2) For compound preparation, test compounds were diluted in duplicates from 10 mM stocks in 11-points 1:3 serial dilutions in DMSO. Then 125 nL test compounds at the serial dilutions were dispensed into 384-well assay plate using Echo dispenser. Staurosporine at 1 mM stock (5 μM final concentration) and DMSO (0.500 final concentration) were used as the positive and negative controls respectively.
(§3) To prepare cell lines, each frozen cell line stock was resuspended and grown in proper growth medium to a density of 40,000 cells/mL. Then 25 μL of cell suspension were dispensed into the assay plate to give seed cell density at 1,000 cells/well, compounds at 50 μM top concentration with 11-point serial dilutions, and 0.5% o DMSO final concentration. Assay plates were then centrifuged at 300 rpm for 1 minute and then incubated at 37° C., 9500 humidity, 500 CO2 for 72 hours. After the 72 hour incubation, the assay plate and its contents were equilibrated at room temperature for approximately 30 minutes. 25 μL of CellTiterGlo reagent was added to the assay plate and mixed for two minutes on an orbital shaker. Then after 10 minutes of incubation of assay plate at from temperature, the luminescence (RLU) signals in each well were recorded using Envision plate reader, then converted to percentage inhibition values using the signals in staurosporine and DMSO treated wells as the references. IC50 values were determined by curve fitting in Levenberg-Marquardt algorithm.

[2] = system: COLO201; assay: Cell proliferation assay (CellTiterGlo, 72 hour incubation), COLO201; format: cell-based; details: Homo sapiens, COLO 201, COLO201 cells, inhibition of cell proliferation, CellTiterGlo luminescence
Experimental: as §1, §2, §3

Row | Structure (SMILES) | IC50 [1] [µM] | IC50 [2] [µM]
1 | Cc1cn2cc(-c3nc(=O)n4cc(N5CCNCC5)ccc4n3)cc(F)c2n1 [Compound 100, 2-(8-fluoro-2-methylimidazo[1,2-a]pyridin-6-yl)-7-(piperazin-1-yl)-4H-pyrido[1,2-a][1,3,5]triazin-4-one hydrochloride] | – | < 1
2 | Cc1cn2cc(-c3nc(=O)n4cc(N5CCCNCC5)ccc4n3)cc(F)c2n1 [Compound 104, 7-(1,4-diazepan-1-yl)-2-(8-fluoro-2-methylimidazo[1,2-a]pyridin-6-yl)-4H-pyrido[1,2-a][1,3,5]triazin-4-one hydrochloride] | ≥ 10 | ≥ 10
3 | Cc1cn2cc(-c3nc(=O)n4cc(N5CC6CCC(C5)N6)ccc4n3)cc(F)c2n1 [Compound 105, 7-(3,8-diazabicyclo[3.2.1]octan-3-yl)-2-(8-fluoro-2-methylimidazo[1,2-a]pyridin-6-yl)-4H-pyrido[1,2-a][1,3,5]triazin-4-one hydrochloride] | ≥ 10 | ≥ 10
4 | Cc1cn2cc(-c3nc(=O)n4cc(N5CC6CNCC6C5)ccc4n3)cc(F)c2n1 (stereo not drawn) [Compound 106, 2-(8-fluoro-2-methylimidazo[1,2-a]pyridin-6-yl)-7-(hexahydropyrrolo[3,4-c]pyrrol-2(1H)-yl)-4H-pyrido[1,2-a][1,3,5]triazin-4-one hydrochloride] | ≥ 10 | ≥ 10
5 | Cc1cn2cc(-c3nc(=O)n4cc(N5CCN(C)[C@@H](C)C5)cc(C)c4n3)cc(F)c2n1 [Compound 124, (S)-7-(3,4-dimethylpiperazin-1-yl)-2-(8-fluoro-2-methylimidazo[1,2-a]pyridin-6-yl)-9-methyl-4H-pyrido[1,2-a][1,3,5]triazin-4-one] | 1 to 10 | –
6 | Cc1cn2cc(-c3nc(=O)n4cc(N5CCNC(C)(C)C5)cc(C)c4n3)cc(F)c2n1 [Compound 125, 7-(3,3-dimethylpiperazin-1-yl)-2-(8-fluoro-2-methylimidazo [1,2-a]pyridin-6-yl)-9-methyl-4H-pyrido[1,2-a][1,3,5]triazin-4-one hydrochloride] | 1 to 10 | –
7 | Cc1cn2cc(-c3nc(=O)n4cc(N5CCNCC5)ccc4n3)cc(C)c2n1 [Compound 126, 2-2,8-dimethylimidazo[1,2-a]pyridin-6-yl-7-(piperazin-1-yl)-4H-pyrido[1,2-a][1,3,5]triazin-4-one hydrochloride] | 1 to 10 | –
8 | Cc1cc2cc(-c3nc(=O)n4cc(N5CCN[C@@H](C)C5)cc(C)c4n3)cc(C)n2n1 [Compound 129, 2-{2,7-dimethylpyrazolo[1,5-a]pyridin-5-yl}-9-methyl-7-[(3S)-3-methylpiperazin-1-yl]-4H-pyrido[1,2-a][1,3,5]triazin-4-one] | 1 to 10 | –
9 | Cc1cn2cc(-c3nc(=O)n4cc(N5CCNC6(CC6)C5)cc(C)c4n3)cc(F)c2n1 [Compound 132, 7-{4,7-diazaspiro[2.5]octan-7-yl}-2-{8-fluoro-2-methylimidazo[1,2-a]pyridin-6-yl}-9-methyl-4H-pyrido[1,2-a][1,3,5]triazin-4-one] | 1 to 10 | –
10 | Cc1cc2cc(-c3nc(=O)n4cc(N5CCN[C@@H](C)C5)ccc4n3)cc(C)n2n1 [Compound 134, (S)-2-(2,7-dimethylpyrazolo[1,5-a]pyridin-5-yl)-7-(3-methylpiperazin-1-yl)-4H-pyrido[1,2-a][1,3,5]triazin-4-one] | 1 to 10 | –
11 | Cc1cc2cc(-c3nc(=O)n4cc(N5CCNC(C)(C)C5)cc(F)c4n3)cc(C)n2n1 [Compound 135, 7-(3,3-dimethylpiperazin-1-yl)-2-(2,7-dimethylpyrazolo[1,5-a]pyridin-5-yl)-9-fluoro-4H-pyrido[1,2-a][1,3,5]triazin-4-one] | 1 to 10 | –

Results, then the compound that gave them:

Row | IC50 [1] [µM] | IC50 [2] [µM] | Structure (SMILES)
12 | < 1 | – | Cc1cn2cc(-c3nc(=O)n4cc(N5CCNCC5)ccc4n3)cc(F)c2n1 [Compound 99, 2-{8-fluoro-2-methylimidazo[1,2-a]pyridin-6-yl}-7-(piperazin-1-yl)-4H-pyrido[1,2-a][1,3,5]triazin-4-one]
13 | < 1 | < 1 | Cc1cn2cc(-c3nc(=O)n4cc(N5CCN[C@@H](C)C5)ccc4n3)cc(F)c2n1 [Compound 101]
14 | < 1 | 1 to 10 | Cc1cn2cc(-c3nc(=O)n4cc(N5CCN[C@H](C)C5)ccc4n3)cc(F)c2n1 [Compound 102, (R)-2-(8-fluoro-2-methylimidazo[1,2-a]pyridin-6-yl)-7-(3-methylpiperazin-1-yl)-4H-pyrido[1,2-a][1,3,5]triazin-4-one formic acid]
15 | 1 to 10 | 1 to 10 | Cc1cn2cc(-c3nc(=O)n4cc(N5CCN(C)CC5)ccc4n3)cc(F)c2n1 [Compound 103, 2-(8-fluoro-2-methylimidazo[1,2-a]pyridin-6-yl)-7-(4-methylpiperazin-1-yl)-4H-pyrido[1,2-a][1,3,5]triazin-4-one]
16 | < 1 | < 1 | Cc1cn2cc(-c3nc(=O)n4cc(N5C[C@@H](C)N[C@@H](C)C5)ccc4n3)cc(F)c2n1 [Compound 107, 7-((3S,5R)-3,5-dimethylpiperazin-1-yl)-2-(8-fluoro-2-methylimidazo[1,2-a]pyridin-6-yl)-4H-pyrido[1,2-a][1,3,5]triazin-4-one hydrochloride]
17 | 1 to 10 | < 1 | Cc1cn2cc(-c3nc(=O)n4cc(N5CCNCC5)cc(C)c4n3)cc(F)c2n1 [Compound 108, 2-(8-fluoro-2-methylimidazo[1,2-a]pyridin-6-yl)-9-methyl-7-(piperazin-1-yl)-4H-pyrido[1,2-a][1,3,5]triazin-4-one hydrochloride]
18 | < 1 | < 1 | Cc1cn2cc(-c3nc(=O)n4cc(N5CCNC(C)(C)C5)ccc4n3)cc(F)c2n1 [Compound 109, 7-(3,3-dimethylpiperazin-1-yl)-2-(8-fluoro-2-methylimidazo [1,2-a]pyridin-6-yl)-4H-pyrido[1,2-a][1,3,5]triazin-4-one]
19 | < 1 | < 1 | Cc1cn2cc(-c3nc(=O)n4cc(N5CCNCC5)cc(F)c4n3)cc(F)c2n1 [Compound 110, 9-fluoro-2-(8-fluoro-2-methylimidazo[1,2-a]pyridin-6-yl)-7-(piperazin-1-yl)-4H-pyrido[1,2-a][1,3,5]triazin-4-one hydrochloride]
20 | 1 to 10 | – | Cc1cn2cc(-c3nc(=O)n4cc(C5CCNC5)ccc4n3)cc(F)c2n1 (stereo not drawn) [Compound 112, 2-(8-fluoro-2-methylimidazo[1,2-a]pyridin-6-yl)-7-(pyrrolidin-3-yl)-4H-pyrido[1,2-a][1,3,5]triazin-4-one hydrochloride]
21 | 1 to 10 | – | Cc1cn2cc(-c3nc(=O)n4cc(N5CCN[C@@H](C)C5)cc(C)c4n3)cc(C)c2n1 [Compound 123, (S)-2-(2,8-dimethylimidazo[1,2-a]pyridin-6-yl)-9-methyl-7-(3-methylpiperazin-1-yl)-4H-pyrido[1,2-a][1,3,5]triazin-4-one hydrochloride]
22 | < 1 | – | CC[C@H]1CN(c2cc(F)c3nc(-c4cc(F)c5nc(C)cn5c4)nc(=O)n3c2)CCN1 [Compound 128, 7-[(3S)-3-ethylpiperazin-1-yl]-9-fluoro-2-{8-fluoro-2-methylimidazo[1,2-a]pyridin-6-yl}-4H-pyrido[1,2-a][1,3,5]triazin-4-one]
23 | < 1 | – | Cc1cn2cc(-c3nc(=O)n4cc(N5CCNC(C)(C)C5)cc(F)c4n3)cc(F)c2n1 [Compound 130, 7-(3,3-dimethylpiperazin-1-yl)-9-fluoro-2-{8-fluoro-2-methylimidazo[1,2-a]pyridin-6-yl}-4H-pyrido[1,2-a][1,3,5]triazin-4-one]
